Patent US10124033B2, “Peptides and methods of use” (BAXALTA INCORPORATED, priority 2014, dated 2018)
Residues, ends and D or L forms follow the SMILES beside them.

Experiments:
Protein S = target: T1, Protein S (Homo sapiens, UniProt P07225); experiment: competition (IC50) ELISA with biotinylated tracer peptide JBS0684; type: binding; settings: competition ELISA, tracer JBS0684; re-synthesized peptides
T1 sequence (P07225 41-676 limits assumed): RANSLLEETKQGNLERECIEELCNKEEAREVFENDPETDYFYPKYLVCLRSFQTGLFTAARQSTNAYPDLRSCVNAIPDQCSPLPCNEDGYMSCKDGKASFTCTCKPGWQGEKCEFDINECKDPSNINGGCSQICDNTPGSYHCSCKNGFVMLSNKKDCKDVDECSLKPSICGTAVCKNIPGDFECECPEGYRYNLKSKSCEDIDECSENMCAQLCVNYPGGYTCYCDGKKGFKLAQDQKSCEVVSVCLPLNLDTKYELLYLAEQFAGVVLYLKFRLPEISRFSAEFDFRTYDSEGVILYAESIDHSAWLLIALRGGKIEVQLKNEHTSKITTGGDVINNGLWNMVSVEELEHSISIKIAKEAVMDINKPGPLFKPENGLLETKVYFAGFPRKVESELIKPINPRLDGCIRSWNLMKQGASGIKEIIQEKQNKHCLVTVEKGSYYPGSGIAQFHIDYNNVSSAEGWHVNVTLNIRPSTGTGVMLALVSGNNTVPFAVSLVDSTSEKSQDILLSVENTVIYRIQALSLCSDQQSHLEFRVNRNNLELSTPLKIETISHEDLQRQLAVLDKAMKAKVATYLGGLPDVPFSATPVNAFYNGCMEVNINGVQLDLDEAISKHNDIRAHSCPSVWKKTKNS
Method: The new peptide candidates were synthesized (purity >60%) and screened for affinity in a competitive binding assay (ELISA IC50) and activity in a thrombin generation assay (CAT). The competition (IC50) ELISA was performed using biotinylated tracer peptide JBS0684 to compete for Protein S-binding with candidate peptides. Peptides that compete with the tracer bind the same region of Protein S as the tracer (and each other). Ninety-six well PolySorp plates (Nunc) were coated with 3 μg/mL Protein S in coating buffer (15 mM Na2CO3, 35 mM NaHCO3, pH 9.6) over night. Plates were washed three times with wash buffer (HNaT: 175 mM NaCl, 25 mM HEPES, 5 mM CaCl2, 0.1% Tween 80, pH 7.35), and blocked with 100 μl 2% yeast extract in HNaT for at least 1 hour. Plates were then washed three times with HNaT. JBS0684 was applied at a concentration corresponding to the EC90 value determined in the binding ELISA. A competitor stock solution of peptide (10 mM) was diluted 1/33.3 in HNaT without HSA, and a serial ⅓ dilution was prepared with HNaT with 3% DMSO. The dilution was further diluted with the biotinylated tracer peptide in a ratio of 1:6 (20 μl competitor dilution and 100 μl tracer peptide). The mixture of competitor and tracer peptide was applied to the Protein S-coated microtiter plate and incubated for 1.5 hours. The plates were washed three times with HNaT. Peptide-Protein S binding was detected by applying HRP-conjugated streptavidin to the microtiter plate, incubating the mixture for one hour, washing the plate three times with HNaT, applying TMB (3,3′5,5′-Tetramethylbenzidin), and detecting the subsequent chromogenic conversion of TMB by HRP. IC50 measurements of peptides are provided herein (see, e.g., Table 3).

[1] = target: T2, Protein S/APC cofactor activity (Homo sapiens, UniProt P07225); experiment: CAT assay: Protein S/APC-dependent thrombin generation in FVIII-inhibited plasma; type: biochemical; settings: Protein S-depleted plasma supplemented with APC and Protein S, FVIII-inhibited
T2 construct: host or cells: plasma
T2 sequence (P07225 41-676 limits assumed): T1 sequence (P07225 41-676 limits assumed)
Method: Peptides also were tested for improvement of Protein S/APC-dependent thrombin generation in hemophilic plasma using a CAT assay. Protein S enhances the anticoagulation of APC in plasma. The CAT assay quantifies the effect of Protein S on APC-mediated thrombin generation initiated via the extrinsic coagulation pathway (Nicolaes, Blood Coagul. Fibrinolysis, 8:28 (1997)). APC (35 nM) and Protein S (25 nM) was added to Protein 5-depleted plasma, and plasma samples were incubated with high titer heat inactivated anti-human FVIII plasma raised in goat (4490 BU/ml; Baxter BioScience, Vienna, Austria; 50 BU/ml final plasma concentration). Thrombin formation in plasma was followed by calibrated automated thrombography (CAT) in a Fluoroskan Ascent® reader (Thermo Labsystems, Helsinki, Finland) and quantified via the thrombin peak-height. Thrombin generation was determined at high tissue factor (TF) concentration in the absence and in the presence of APC at a concentration that reduces the peak height to ˜20%. The inhibitory effect of peptides described herein on the APC cofactor activity of Protein S (PS) in plasma was measured in FVIII-inhibited pooled normal plasma supplemented with APC. Complete (100%) Protein S/APC inhibition is the height of the thrombin peak without addition of APC. Lack of (0%) PS/APC inhibition correlates to the thrombin peak-height value with a certain amount of APC. Peptides were ranked by their normalized values in comparison to the mean of wild-type controls including SD at two defined peptide concentrations (EC50 and EC90).
Exemplary conditions for the CAT assay are as follows. Protein S-depleted plasma was supplemented with 35 nM APC and […]. Stock APC was diluted with 10 pM TF and 15 μM PL. Lyophilized peptides were dissolved in 100% DMSO to a 5 mM stock concentration and further diluted with HNABSA5-buffer+0.1% Tween80. […] In a 96 well Immulon 2HB (transparent), U-bottom (ThermoElectron) plate was mixed 80 μl plasma (+CTI+Z994-5), 10 μl peptide dilution, and 10 μl APC-TF-PL-MIX or Calibrator. Thrombin generation was initiated by dispensing 20 μL of FluCa reagent containing fluorogenic substrate and HEPES-buffered CaCl2 (100 mM) into each well. Fluorescence intensity was recorded at 37° C. using the Fluoroskan Ascent® reader (filters 390 nm excitation and 460 nm emission). The parameters of the resulting thrombin generation curves were calculated using the Thrombinoscope™ software (Thrombinoscope) and thrombin calibrator to correct for inner filter and substrate consumption effects (Hemker, Pathophysiol Haemost Thromb, 33: 415 (2003)).

Row | Compound | IC50 (Protein S) | EC50 [1]
1 | CC(=O)N[C@H](C(=O)NCC(=O)N[C@@H](Cc1c[nH]cn1)C(=O)N[C@H](C(=O)N[C@@H](CO)C(=O)N[C@@H](C)C(=O)NCC(=O)N[C@@H](Cc1c[nH]c2ccccc12)C(=O)N[C@@H](Cc1ccc(O)cc1)C(=O)N[C@@H](CC(=O)O)C(=O)N[C@@H](Cc1ccc(O)cc1)C(=O)N[C@@H](CC(N)=O)C(=O)N[C@@H](C)C(=O)N[C@@H](CC(=O)O)C(=O)N[C@@H](Cc1c[nH]cn1)C(=O)N[C@@H](Cc1ccc(O)cc1)C(=O)N[C@@H](CCCNC(=N)N)C(=O)N[C@@H](CCC(=O)O)C(=O)N[C@@H](Cc1ccccc1)C(=O)N[C@H](C(N)=O)[C@@H](C)O)C(C)C)[C@@H](C)O [JBS2526] (Ac-TGHVSAGWYDYNADHYREFT-NH2) | 3.6 nM | 19 nM
2 | CC(=O)N[C@H](C(=O)NCC(=O)N[C@@H](Cc1c[nH]cn1)C(=O)N[C@H](C(=O)N[C@@H](CO)C(=O)N[C@@H](C)C(=O)NCC(=O)N[C@@H](Cc1c[nH]c2ccccc12)C(=O)N[C@@H](Cc1ccc(O)cc1)C(=O)N[C@@H](CC(=O)O)C(=O)N[C@@H](Cc1ccc(O)cc1)C(=O)N[C@@H](CC(N)=O)C(=O)N[C@@H](Cc1ccccc1)C(=O)N[C@@H](CC(=O)O)C(=O)N[C@@H](CCCCN)C(=O)N[C@@H](Cc1ccc(O)cc1)C(=O)N[C@@H](CCCNC(=N)N)C(=O)N[C@@H](CCC(=O)O)C(=O)N[C@@H](Cc1ccccc1)C(=O)N[C@H](C(N)=O)[C@@H](C)O)C(C)C)[C@@H](C)O [JBS2604] (Ac-TGHVSAGWYDYNFDKYREFT-NH2) | 4.1 nM | 19 nM
3 | CC(=O)NCC(=O)NCC(=O)N[C@@H](Cc1c[nH]cn1)C(=O)N[C@H](C(=O)N[C@@H](CO)C(=O)N[C@@H](C)C(=O)NCC(=O)N[C@@H](Cc1c[nH]c2ccccc12)C(=O)N[C@@H](Cc1ccc(O)cc1)C(=O)N[C@@H](CC(=O)O)C(=O)N[C@@H](Cc1ccc(O)cc1)C(=O)N[C@@H](CC(N)=O)C(=O)N[C@@H](Cc1ccccc1)C(=O)N[C@@H](CC(=O)O)C(=O)N[C@@H](Cc1c[nH]cn1)C(=O)N[C@@H](Cc1ccc(O)cc1)C(=O)N[C@@H](CCCNC(=N)N)C(=O)N[C@@H](CCC(=O)O)C(=O)N[C@@H](Cc1ccccc1)C(=O)N[C@H](C(N)=O)[C@@H](C)O)C(C)C [JBS2552] (Ac-GGHVSAGWYDYNFDHYREFT-NH2) | 5.5 nM | 24 nM
4 | CC(=O)N[C@H](C(=O)NCC(=O)N[C@@H](Cc1c[nH]cn1)C(=O)N[C@H](C(=O)N[C@@H](CO)C(=O)N[C@@H](C)C(=O)NCC(=O)N[C@@H](Cc1c[nH]c2ccccc12)C(=O)N[C@@H](Cc1ccc(O)cc1)C(=O)N[C@@H](CC(=O)O)C(=O)N[C@@H](Cc1ccc(O)cc1)C(=O)N[C@@H](CC(N)=O)C(=O)N[C@@H](Cc1ccccc1)C(=O)N[C@@H](CC(=O)O)C(=O)N[C@@H](CC(=O)O)C(=O)N[C@@H](Cc1ccc(O)cc1)C(=O)N[C@@H](CCCNC(=N)N)C(=O)N[C@@H](CCC(=O)O)C(=O)N[C@@H](Cc1ccccc1)C(=O)N[C@H](C(N)=O)[C@@H](C)O)C(C)C)[C@@H](C)O [JBS2546] (Ac-TGHVSAGWYDYNFDDYREFT-NH2) | 6.8 nM | 30 nM

Now those with a lower IC50 (Protein S), led by results:

Row | IC50 (Protein S) | EC50 [1] | Compound
5 | 3.4 nM | 30 nM | CC(=O)N[C@H](C(=O)NCC(=O)N[C@@H](Cc1c[nH]cn1)C(=O)N[C@H](C(=O)N[C@@H](CO)C(=O)N[C@@H](C)C(=O)NCC(=O)N[C@@H](Cc1c[nH]c2ccccc12)C(=O)N[C@@H](Cc1ccc(O)cc1)C(=O)N[C@@H](CC(=O)O)C(=O)N[C@@H](Cc1ccc(O)cc1)C(=O)N[C@@H](CC(N)=O)C(=O)N[C@@H](CCCCN)C(=O)N[C@@H](CC(=O)O)C(=O)N[C@@H](Cc1c[nH]cn1)C(=O)N[C@@H](Cc1ccc(O)cc1)C(=O)N[C@@H](CCCNC(=N)N)C(=O)N[C@@H](CCC(=O)O)C(=O)N[C@@H](Cc1ccccc1)C(=O)N[C@H](C(N)=O)[C@@H](C)O)C(C)C)[C@@H](C)O [JBS2602] (Ac-TGHVSAGWYDYNKDHYREFT-NH2)
6 | 2.6 nM | 19 nM | CC(=O)N[C@H](C(=O)NCC(=O)N[C@@H](Cc1c[nH]cn1)C(=O)N[C@H](C(=O)N[C@@H](CO)C(=O)N[C@@H](C)C(=O)NCC(=O)N[C@@H](Cc1c[nH]c2ccccc12)C(=O)N[C@@H](Cc1ccc(O)cc1)C(=O)N[C@@H](CC(=O)O)C(=O)N[C@@H](Cc1ccc(O)cc1)C(=O)N[C@@H](CC(N)=O)C(=O)N[C@@H](Cc1ccccc1)C(=O)N[C@@H](CC(=O)O)C(=O)N[C@@H](Cc1c[nH]cn1)C(=O)N[C@@H](Cc1ccc(O)cc1)C(=O)N[C@@H](CC(C)C)C(=O)N[C@@H](CCC(=O)O)C(=O)N[C@@H](Cc1ccccc1)C(=O)N[C@H](C(N)=O)[C@@H](C)O)C(C)C)[C@@H](C)O [JBS2586] (Ac-TGHVSAGWYDYNFDHYLEFT-NH2)
7 | 2.7 nM | 9 nM | CC(=O)N[C@H](C(=O)NCC(=O)N[C@@H](Cc1c[nH]cn1)C(=O)N[C@H](C(=O)N[C@@H](CO)C(=O)N[C@@H](C)C(=O)NCC(=O)N[C@@H](Cc1c[nH]c2ccccc12)C(=O)N[C@@H](Cc1ccc(O)cc1)C(=O)N[C@@H](CC(=O)O)C(=O)N[C@@H](Cc1ccc(O)cc1)C(=O)N[C@@H](CC(N)=O)C(=O)N[C@@H](Cc1ccccc1)C(=O)N[C@@H](CC(=O)O)C(=O)N[C@@H](CC(C)C)C(=O)N[C@@H](Cc1ccc(O)cc1)C(=O)N[C@@H](CCCNC(=N)N)C(=O)N[C@@H](CCC(=O)O)C(=O)N[C@@H](Cc1ccccc1)C(=O)N[C@H](C(N)=O)[C@@H](C)O)C(C)C)[C@@H](C)O [JBS2584] (Ac-TGHVSAGWYDYNFDLYREFT-NH2)
